Laboratory results published in PubChem BioAssay (NCI).
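1) Cells in 96-well plates. 2) Compound, 48 h, 5 concentrations. 3) Linear interpolation between surrounding doses. 4) Unreached endpoint = highest concentration. At the TGI there is no net growth.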

Key:
Assay in all cases: DTP human tumour cell line panel, 48 h
KM12 colon = test system: KM12 colon
NCI-H226 lung = test system: NCI-H226 lung
HT29 colon = test system: HT29 colon
MOLT-4 leukemia = test system: MOLT-4 leukemia
NCI/ADR-RES ovarian = test system: NCI/ADR-RES ovarian
MDA-MB-435 = test system: MDA-MB-435
MCF7 breast = test system: MCF7 breast
SR leukemia = test system: SR leukemia
CCRF-CEM leukemia = test system: CCRF-CEM leukemia
HCT-116 colon = test system: HCT-116 colon
SN12C renal = test system: SN12C renal
SK-MEL-5 melanoma = test system: SK-MEL-5 melanoma
SF-539 CNS = test system: SF-539 CNS
MDA-MB-231 breast = test system: MDA-MB-231 breast
M14 melanoma = test system: M14 melanoma

Structure (SMILES) | TGI (KM12 colon) [µM] | TGI (NCI-H226 lung) [µM] | TGI (HT29 colon) [µM] | TGI (MOLT-4 leukemia) [µM] | TGI (NCI/ADR-RES ovarian) [µM] | TGI (MDA-MB-435) [µM] | TGI (MCF7 breast) [µM] | TGI (SR leukemia) [µM] | TGI (CCRF-CEM leukemia) [µM] | TGI (HCT-116 colon) [µM] | TGI (SN12C renal) [µM] | TGI (SK-MEL-5 melanoma) [µM] | TGI (SF-539 CNS) [µM] | TGI (MDA-MB-231 breast) [µM] | TGI (M14 melanoma) [µM]
C[n+]1ccc(/C2=C3\C=CC(=N3)/C(c3cc[n+](C)cc3)=c3/cc/c([nH]3)=C(\c3cc[n+](C)cc3)C3=N/C(=C(/c4cc[n+](C)cc4)C4C=CC2N4)C=C3)cc1 | > 100 | > 100 | > 100 | > 100 | > 100 | > 100 | > 100 | > 32.9 | > 100 | > 100 | > 100 | > 100 | > 100 | > 100 | > 100
COc1cc(C2SCC(=O)N2c2cccc(Cl)c2)cc(OC)c1OC (configuration not stated) | > 100 | > 100 | > 100 | > 100 | > 100 | > 100 | > 100 | > 100 | 91.2 | > 100 | > 100 | > 100 | > 100 | > 100 | > 100
NCCSS(=O)(=O)CCN | > 100 | > 100 | > 100 | > 100 | > 100 | > 100 | > 100 | > 100 | > 100 | > 100 | > 100 | > 100 | > 100 | > 100 | > 100
CCC(CCCN)Nc1cc(OC)cc2c(C)ccnc12 (configuration not stated) | 29 | 28.3 | 28.6 | 40 | 76.4 | 28 | 29.3 | 31.6 | 52.6 | 37.2 | 53.5 | 31.6 | 33.4 | 28.5 | 29.3
Oc1ccc(-c2cc(-c3cc(-c4ccc(O)cc4)no3)on2)cc1 | > 100 | > 100 | > 100 | 9.52 | > 100 | > 100 | > 100 | > 31.6 | > 100 | > 100 | > 100 | > 100 | > 49.7 | > 100 | > 100
C=CCN1C(=O)/C(=C/c2cccs2)N=C1SC/C=C/C | > 100 | > 100 | > 100 | 44.6 | > 100 | > 100 | > 100 | 45.8 | > 100 | > 100 | 86.6 | 37.7 | > 100 | > 100 | > 100
O=C(CCCN1CCC2(CC1)CC(c1ccccc1)OC2=O)c1ccc(F)cc1 (configuration not stated) | 97.1 | > 100 | 35.2 | 62.1 | > 100 | > 100 | > 100 | 40.1 | > 100 | > 100 | > 100 | 36.1 | 53.1 | > 100 | 30.9
COC(=O)[C@H](CCSC)NC(=O)N[C@H](C)c1ccccc1 | > 100 | > 100 | > 100 | > 100 | > 100 | > 100 | > 100 | > 100 | > 100 | > 100 | > 100 | > 100 | > 100 | > 100 | > 100
CN(C)c1ccc(C(Cc2ccccc2)C2NC(=S)NC2=O)cc1 (configuration not stated) | > 100 | > 100 | > 100 | > 100 | > 100 | > 100 | > 100 | > 100 | > 100 | > 100 | > 100 | > 100 | > 100 | > 100 | > 100
C=CCC1(OCc2ccccc2)C(=O)C(=O)OC1C1COC(C)(C)O1 (configuration not stated) | > 100 | > 100 | > 100 | > 100 | > 100 | > 100 | > 100 | > 100 | > 100 | > 100 | > 100 | > 100 | > 100 | > 100 | > 100
CCOC(=O)/C(C=Nc1c(C)n(C)n(-c2ccccc2)c1=O)=C(/C)O | > 100 | > 100 |  | > 100 | > 100 | > 100 | > 100 | > 100 | > 100 | > 100 | > 100 | > 100 | > 100 | > 100 | > 100
O=C1C=CC2(C=C1)O[C@H](Cc1ccccc1)[C@@H](Cc1ccccc1)O2 | 4.51 | 0.902 | 2.81 | […] | 1.11 | 3.56 | 1.51 | 3.26 | 0.585 |  | 3.01 | 1.76 | 1.02 | 5.44 | 2.15
COc1ccc(C2SCC(=O)N2c2ccc(-c3ccc(-n4c(-c5ccccc5)nc5ccccc5c4=O)cc3)cc2)cc1OC (configuration not stated) | 28.3 | > 100 | > 100 | > 100 | > 100 | > 100 | > 100 | > 100 | 92.5 | > 100 | > 100 |  | > 100 | > 100 | > 100
